From patent US20020128231A1 (priority 2000, published 2002)

Legend:
[1] = test system: MDR1-expressing NIH 3T3 cells; assay: Cytotoxicity (MTT) assay: modulation of drug cytotoxicity in multidrug resistant cells; settings: for Modulation of Drug Resistance (percentage increase in doxorubicin cytotoxicity in the presence of the compounds versus in their absence): compound 5 μM, 50 nM doxorubicin, 72 hours, MTT
Description: Cytotoxicity assays were performed with many of the compounds of Formula I to verify their usefulness as inhibitors of P-gp.
Parental NIH3T3 Swiss mouse embryo cell line was obtained from American Type Culture Collection and was grown in Dulbecco's Modified Eagles Medium supplemented with 4.5 g/L glucose, 10% fetal bovine serum, 2 mM L-glutamine, and 0.01 mg/ml gentamicin. […] All cells were maintained in a humidified atmosphere with 5% CO2 at 37° C.
Parental and MDR1-expressing NIH 3T3 cells were plated at a density of 2.5-3.0×10^3 cells/well in 96-well microtiter plates and were exposed to 50 nM of doxoriubicin, 7.5 nM vinblastine, 75 nM colchicine or 300 nM paclitaxel for 72 hours. Cell viability was determined with the colorimetric MTT (3-(4,5-dimethylthiazol-2-yl)-2,5-diphenyl tetrazolium) assay as previously described (Mosmann T., J. Immunol. Methods, 65: 55-63 (1983); Hansen M. B. et al., J. Immunol. Methods, 119: 203-210 (1989)) and the absorbance was measured at 570 nm.

[2] = molecular target: P-glycoprotein (Homo sapiens, UniProt P08183); assay: Rhodamine 123 transport assay across HCT-8 cell monolayers; settings: compound 10 μM, Rh123 15 μM, HCT-8 cells; for inhibition at 10 μM: human, HCT-8 cell monolayers in Transwell dishes, probe Rhodamine 123 (15 μM), % Inhibition of R123 Transport
Sequence of P-glycoprotein (P08183 whole entry): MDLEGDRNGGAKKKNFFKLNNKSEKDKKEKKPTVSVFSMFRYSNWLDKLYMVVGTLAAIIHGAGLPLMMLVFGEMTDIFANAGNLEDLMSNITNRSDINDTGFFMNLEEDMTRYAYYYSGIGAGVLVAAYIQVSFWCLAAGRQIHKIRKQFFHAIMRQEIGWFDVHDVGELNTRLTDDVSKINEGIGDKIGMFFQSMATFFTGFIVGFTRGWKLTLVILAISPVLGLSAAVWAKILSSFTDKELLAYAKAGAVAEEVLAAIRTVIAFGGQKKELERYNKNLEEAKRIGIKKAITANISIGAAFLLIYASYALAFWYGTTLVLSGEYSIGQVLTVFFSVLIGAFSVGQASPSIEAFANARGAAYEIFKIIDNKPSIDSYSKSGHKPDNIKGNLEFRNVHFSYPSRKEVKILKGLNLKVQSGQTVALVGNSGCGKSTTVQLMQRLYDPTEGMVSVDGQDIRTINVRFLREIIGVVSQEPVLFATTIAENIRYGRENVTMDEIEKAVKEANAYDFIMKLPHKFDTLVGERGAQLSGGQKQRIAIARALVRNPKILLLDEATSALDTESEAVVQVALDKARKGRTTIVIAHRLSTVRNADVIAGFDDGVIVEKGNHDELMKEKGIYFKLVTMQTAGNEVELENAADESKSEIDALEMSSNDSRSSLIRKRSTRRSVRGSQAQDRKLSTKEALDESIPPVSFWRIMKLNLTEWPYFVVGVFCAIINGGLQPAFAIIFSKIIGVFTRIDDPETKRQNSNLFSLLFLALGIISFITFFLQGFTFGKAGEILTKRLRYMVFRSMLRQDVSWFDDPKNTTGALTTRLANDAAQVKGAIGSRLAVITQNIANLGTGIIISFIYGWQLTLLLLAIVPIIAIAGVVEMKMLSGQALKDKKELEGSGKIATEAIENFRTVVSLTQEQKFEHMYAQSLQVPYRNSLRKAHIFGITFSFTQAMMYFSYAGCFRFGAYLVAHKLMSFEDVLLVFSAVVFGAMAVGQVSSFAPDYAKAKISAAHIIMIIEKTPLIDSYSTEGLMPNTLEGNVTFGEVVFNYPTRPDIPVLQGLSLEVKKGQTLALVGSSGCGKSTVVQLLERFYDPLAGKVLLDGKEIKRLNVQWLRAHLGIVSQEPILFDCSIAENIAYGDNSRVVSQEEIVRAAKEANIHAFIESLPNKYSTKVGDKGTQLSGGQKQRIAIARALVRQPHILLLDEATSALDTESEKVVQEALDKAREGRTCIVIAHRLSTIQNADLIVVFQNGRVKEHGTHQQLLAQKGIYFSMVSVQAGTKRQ
Description: The human ileocecal adenocarcinoma cell line HCT-8 was grown in RPMI-1640 medium supplemented with 10% horse serum, 1 mM sodium pyruvate and 0.01 mg/ml gentamicin. All cells were maintained in a humidified atmosphere with 5% CO2 at 37° C.
Rhodamine 123 transport was examined as previously described (Hunter J. et al., Simmons, Br. J. Cancer, 64: 437444 (1991); Kim A. E. et al., J. Pharm. Exp. Ther., 286: 1439-1445 (1998)) using HCT-8 cells. Particularly, cells were grown in 6 well Corning Transwell dishes until a tight monolayer was formed. Rh123 was added at a final concentration of 15 μM to the basal or apical compartments and 200 μl samples were taken at the indicated times from the opposite chamber. Fluorescence of Rh123 in the media samples was measured using a fluorescence plate reader with an excitation wavelength of 485 nm and an emission wavelength of 530 nm.

| Structure (SMILES) | Modulation of Drug Resistance (percentage increase in doxorubicin cytotoxicity in the presence of the compounds versus in their absence) [1] | inhibition at 10 μM [2] | % Inhibition of R123 Transport [2] | dose responsive sensitization of multidrug resistant cells to doxorubicin (FIG. 5) ([1]; doxorubicin 0-750 nM, compound 50-1000 nM) | dose response inhibition of P-glycoprotein in the presence of vinblastine (FIG. 6) ([1]; vinblastine 0-100 nM, compound 50-1000 nM) |
| --- | --- | --- | --- | --- | --- |
| CCCCOc1ccc(C2c3cc(OCCCC)c(OCCCC)cc3C(CC(=O)N3CCN(c4ccccc4OCC)CC3)C2C(=O)N2CCN(c3ccccc3OCC)CC2)cc1OCCCC (stereo not drawn) [AV-255, 2-{3-(3,4-Dibutoxy-phenyl)-2-[4-(2-ethoxy-phenyl)-piperazine-1-carbonyl]-5,6-dibutoxy-indan-1-yl}-1-[4-(2-ethoxy-phenyl)-piperazin-1-yl]-ethanone] | 6.7% | 96% | – | – | – |
| COc1ccc(C2c3cc(OC)c(OC)cc3C(CC(=O)N3CCNCC3)C2C(=O)N2CCNCC2)cc1OC (stereo not drawn) [AV-185, 2-[3-(3,4-dimethoxyphenyl)-5,6-dimethoxy-2-(piperazine-1-carbonyl)-indan-1-yl]-1-piperazin-1-yl-ethanone] | 18.48% | 25.1% | – | – | – |
| COCC1C(CCO)c2cc(OC)c(OC)cc2C1c1ccc(OC)c(OC)c1 (stereo not drawn) [AV-176, 2-[3-[3,4-dimethoxyphenyl)-5,6-dimethoxy-2-methoxymethyl-indan-1-yl]-ethanol] | 8.65% | 11.5% | – | – | – |
| COc1ccc(C2c3cc(OC)c(OC)cc3C(CCNC(=O)c3ccc(OC(F)(F)F)cc3)C2CNC(=O)c2ccc(OC(F)(F)F)cc2)cc1OC (stereo not drawn) [AV-260] | 2.1% | – | 73.84% | – | – |
| COCC1C(CCN2CCN(CC=Cc3ccccc3)CC2)c2cc(OC)c(OC)cc2C1c1ccc(OC)c(OC)c1 (stereo not drawn) [AV-204, 1-{2-[3-(3,4-dimethoxyphenyl)-5,6-dimethoxy-2-methoxymethyl-indan-1-yl]-ethyl}-4-(3-phenylallyl)-piperazine] | 64.60% | – | – | – | – |
| CCOc1ccccc1N1CCN(C(=O)CC2c3cc(OC)c(OC)cc3C(c3ccc(OC)c(OC)c3)C2C(=O)N2CCN(c3ccccc3OCC)CC2)CC1 (stereo not drawn) [AV-171, 2-{3-(3,4-dimethoxyphenyl)-5,6-dimethoxy-2-[4-(2-ethoxyphenyl)-piperazin-1-carbonyl]-indan-1-yl}-1-[4-(2-ethoxyphenyl)-1-yl]-ethanone] | 66.11% | – | 92.9% | – | – |
| CCCCOc1ccc(C2c3cc(OCCCC)c(OC)cc3C(CC(=O)N3CCN(c4ccccc4OCC)CC3)C2C(=O)N2CCN(c3ccccc3OCC)CC2)cc1OC (stereo not drawn) [AV-208, 2-{5-butoxy-3-(4-butoxy-3-methoxyphenyl)-2-[4-(2-ethoxyphenyl)-piperazine-1-carbonyl]-6-methoxy-indan-1-yl}-1-[4-(2-ethoxyphenyl)-piperazin-1-yl]-ethanone] | 51.78% | 86.1% | – | – | – |
| CCCOc1ccc(C2c3cc(OCCC)c(OC)cc3C(CC(=O)N3CCN(c4ccccc4OCC)CC3)C2C(=O)N2CCN(c3ccccc3OCC)CC2)cc1OC (single isomer, unassigned) [AV-239-1] | 55.3% | – | 90.10% | – | – |
| COc1ccc(C2c3cc(OC)c(OC)cc3C(CC(=O)N3CCN(c4ccc(F)cc4)CC3)C2C(=O)N2CCN(c3ccc(F)cc3)CC2)cc1OC (stereo not drawn) [AV-169, 2-{2-[4-(4-fluorophenyl)-piperazin-1-carbonyl]-3-(3,4-dimethoxyphenyl)-5,6-dimethoxy-indan-1-yl}-1-[4-(4-fluorophenyl)piperazine-1-yl]-ethanone] | 71.29% | 77.1% | – | – | – |
| COc1ccc(C2c3cc(OC)c(OC)cc3C(CCN3CCN(c4ccc(Cl)cc4)CC3)C2CN2CCN(c3ccc(Cl)cc3)CC2)cc1OC (stereo not drawn) [AV-186, 2-{3-(3,4-dimethoxyphenyl)-5,6-dimethoxy-2-[4-(4-chlorophenyl)-piperazin-1-yl-methyl]-indan-1-yl}-1-[4-(4-chlorophenyl)-piperazin-1-yl]-ethane] | 64.87% | 65.8% | – | – | – |
| COc1ccc(C2c3cc(OC)c(OC)cc3C(CC(=O)N3CCN(Cc4ccccc4)CC3)C2C(=O)N2CCN(Cc3ccccc3)CC2)cc1OC (stereo not drawn) [AV-164, 2-[2-(4-benzylpiperazine-1-carbonyl)-3-(3,4-dimethoxyphenyl)-5,6-dimethoxy-indan-1-yl]-1-(4-benzylpiperazine-1-yl)-ethanone] | 70.03% | 85.1% | – | – | – |
| CCOc1ccccc1N1CCN(C(=O)CC2c3cc(OC)c(O)cc3C(c3ccc(O)c(OC)c3)C2C(=O)N2CCN(c3ccccc3OCC)CC2)CC1 (stereo not drawn) [AV-206, 2-[2-[4-(2-ethoxyphenyl)-piperazine-1-carbonyl]-5-hydroxy-3-(4-hydroxy-3-methoxyphenyl)-6-methoxy-indan-1-yl]-1-[4(2-ethoxyphenyl)-piperazin-1-yl]-ethanone] | 54.78% | 88.2% | – | – | – |
| CCCCCCCCCCOc1ccc(C2c3cc(OCCCCCCCCCC)c(OC)cc3C(CC(=O)N3CCN(c4ccccc4OCC)CC3)C2C(=O)N2CCN(c3ccccc3OCC)CC2)cc1OC (stereo not drawn) [AV-209, 2-{5-decyloxy-3-(4-decyloxy-3-methoxyphenyl)-2-[4-(2-ethoxyphenyl)-piperazine-1-carbonyl]-6-methoxy-indan-1-yl}-1-[4-(2-ethoxyphenyl)-piperazin-1-yl]-ethanone] | 1.16% | 47.3% | – | – | – |
| COc1ccc(C2c3cc(OC)c(OC)cc3C(CC(=O)N(C)C)C2C(=O)N(C)C)cc1OC (stereo not drawn) [AV-181, 1-(3,4-dimethoxyphenyl)-3-dimethylcarbamoylmethyl-5,6-dimethoxy-indan-2-carboxylic acid dimethyl amide] | 6.13% | 6% | – | – | – |
| COCC1C(CCN2CCN(c3ccc(OC)cc3)CC2)c2cc(OC)c(OC)cc2C1c1ccc(OC)c(OC)c1 (stereo not drawn) [AV-199, 1-{-2-[3-(3,4-dimethoxyphenyl)-5,6-dimethoxy-2-methoxymethyl-indan-1-yl]-ethyl}-4-(4-methoxyphenyl)-piperazine] | 61.63% | 84% | – | – | – |
| CCOc1ccccc1N1CCN(C(=O)CC2c3cc(OC)c(OC)cc3C(c3ccc(OC)c(OC)c3)C2C(=O)N(C)C)CC1 (stereo not drawn) [AV-257, 1-(3,4-Dimethoxy-phenyl)-3-{2-[4-(2-ethoxy-phenyl)-piperazin-1-yl]-2-oxo-ethyl}-5,6-dimethoxy-indan-2-carboxylic acid dimethylamide] | 8.7% | 80.4% | – | – | – |
| COc1ccc(C2c3cc(OC)c(OC)cc3C(CC(=O)N3CCN(c4ccc(Cl)cc4)CC3)C2C(=O)N2CCN(c3ccc(Cl)cc3)CC2)cc1OC (stereo not drawn) [AV-167, 2-[2-[4-(4-chlorophenyl)-piperazin-1 carbonyl]-3-(3,4-dimethoxyphenyl)-5,6-dimethoxy-indan-1-yl]-1-[4-(4-chlorophenyl)piperazine-1-yl]-ethanone] | 68.21% | 66.3% | – | – | – |
| COCC1C(CCN2CCN(c3ccccc3OC)CC2)c2cc(OC)c(OC)cc2C1c1ccc(OC)c(OC)c1 (stereo not drawn) [AV-202, 1{-2-[3-(3,4-dimethoxyphenyl)-5,6-dimethoxy-2-methoxymethyl-indan-1-yl]-ethyl}-4-(2-methoxyphenyl)-piperazine] | 59.68% | 88.4% | – | dose responsive sensitization | dose response data inhibition of P-glycoprotein |
| COc1ccc(C2c3cc(OC)c(OC)cc3C(CC(=O)N3CCN(c4ccccc4)CC3)C2C(=O)N2CCN(c3ccccc3)CC2)cc1OC (stereo not drawn) [AV-161, 2-[3-(3,4-dimethoxyphenyl)-5,6-dimethoxy-2-(4-phenylpiperazin-1-carbonyl)-indan-1-yl]-1-(4-phenylpiperazin-1-yl)-ethanone] | 75.91% | 64.1% | – | – | – |
| COc1ccc(C2c3cc(OC)c(OC)cc3C(CC(=O)N3CCN(c4ccccc4OC)CC3)C2C(=O)N2CCN(c3ccccc3OC)CC2)cc1OC (stereo not drawn) [AV-188, 2-{3-(3,4-dimethoxyphenyl)-5,6-dimethoxy-2-[4-(2-methoxyphenyl)-piperazin-1-carbonyl]-indan-1-yl}-1-[4-(2-methoxy-phenyl)-1-yl]-ethanone] | 75.39% | – | 87.6% | – | – |
| CCOc1ccccc1N1CCN(C(=O)CC2c3cc(OC)c(OC)cc3C(c3ccc(OC)c(OC)c3)C2C(=O)O)CC1 (stereo not drawn) [AV-250, 1-(3,4-Dimethoxy-phenyl)-3-{2-[4-(2-ethoxy-phenyl)-piperazin-1-yl]-2-oxo-ethyl}-5,6-dimethoxy-indan-2-carboxylic acid] | −7.1% | 55.9% | – | – | – |
| CCCN(CCC)C(=O)CC1c2cc(OC)c(OC)cc2C(c2ccc(OC)c(OC)c2)C1C(=O)N(CCC)CCC (stereo not drawn) [AV-189, 1-(3,4-dimethoxyphenyl)-3-dipropylcarbamoylmethyl-5,6-dimethoxy-indan-2-carboxylic acid dipropyl amide] | 64.78% | 60% | – | – | – |
